Laboratory results as given in patent publication US20240108618A1, “KRAS G12C INHIBITOR DOSING REGIMENS” (Eli Lilly and Company, priority 2022, published 2024).
Several values for one entry are separate records, joined by “and”; a condition that tells them apart may be missing. Equal entries are not always repeated. Entries after “also recorded” stand apart in the source; their conditions may differ.

Legend:
[1] = test system: SW837; test: SW837 (CRC) xenograft model; format: in vivo, mouse
Protocol: For xenograft models of H1373, HCC44, MiaPaca-2, SW1463, SW837, KYSE-410 and UM-UC-3, typically 5-10×10^6 cells in a 1:1 matrigel mix (0.2 mL total volume) are implanted by subcutaneous injection in hind leg of nude mice. […] Treatment is initiated with oral administration (gavage) of testing compound or vehicle (20% captisol, 25 mM phosphate, pH2.0) in 0.2 mL volume when tumor size reaches approximately 200-300 mg. Tumor growth and body weight are monitored over time to evaluate efficacy and signs of toxicity. For EL3187 PDX model, frozen vials containing tumor fragments are thawed at 37° C. in a water bath. The tumor fragments are transferred to 50 mL Falcon tube and the ice cold DMEM medium is slowly added into the tube to a total volume of 35 mL. Then the tumor fragments are centrifuged at 130×g for 2 minutes at 4° C. and supernatant is aspirated. This washing step is repeated twice and the tumor fragments are resuspended in 10 mL DMEM for implantation into athymic nude-Foxn1nu mice (Envigo RMS, Inc., Mount Comfort, Indiana). Once tumor volumes reach 800 to 1000 mm^3, animals are sacrificed and tumors are harvested using aseptic technique. Fresh tumors are cut into 10 to 15 mm^3 fragments and placed into cold Gibco hibernate medium. The tumor fragments are subcutaneously implanted into animals with a 10 g trochar needle. When tumor size reaches 200 to 300 mm^3, the animals are randomized for compound treatment.
Among models listed in Table 2, EL3187 is a patient-derived xenograft (PDX) model, and all other are tumor xenograft models.

[2] = test system: KRAS G12C-mutant advanced NSCLC; test: NCT04956640 Phase 1b Cohort B4 (with pembrolizumab) clinical response (BOR, ORR, DCR, DOR, TTR, % change from baseline, treatment duration); format: in vivo, human; conditions: for Time to response (TTR) 2 to <4 months / Time to response (TTR) <2 months: Phase 1b Cohort B4 responders
Protocol: The term “BOR” as used herein refers to best overall response based on investigator assessments using RECIST criteria (version 1.1). The minimum duration for BOR of SD is at least 6 weeks after the date of first dose of study drug.
The term “DOR” as used herein refers to duration of response, wherein DOR in months is calculated as the event or censoring date minus the response start date plus 1 day divided by 30.4375.
The term “ORR” as used herein refers to objective response rate, wherein objective response rate is the proportion of patients with BOR of CR or PR. Objective response rate, unconfirmed, is the proportion of patients with BOR of CR, PR, or uPR.
The term “TTR” as used herein refers to time to response, wherein TTR in months is calculated as response start date minus first dose date plus 1 day divided by 30.4375.

[3] = Phase 1b Cohort B4, Total (N = 13)
[4] = Phase 1b Cohort B4, individual patients, starting dose 50 BID, prior KRAS G12Ci Y
[5] = Phase 1b Cohort B4, individual patients, starting dose 100 BID, no prior KRAS G12Ci, listed as compound of Formula I
[6] = Phase 1b Cohort B4, individual patients, starting dose 150 BID, no prior KRAS G12Ci, listed as compound of Formula I
[7] = Phase 1b Cohort B4, individual patients, starting dose 150 BID, prior KRAS G12Ci Y, listed as compound of Formula I
[8] = Phase 1b Cohort B4, starting dose 50 mg BID (N = 1)
[9] = Phase 1b Cohort B4, starting dose 100 mg BID (N = 6)
[10] = Phase 1b Cohort B4, starting dose 150 mg BID (N = 6)
[11] = starting dose 50 mg BID (N = 1)
[12] = starting dose 100 mg BID (N = 6)
[13] = starting dose 150 mg BID (N = 6)

SMILES: C=CC(=O)N1CCN2C(=O)c3cc(F)c(-c4ccc(F)c5sc(N)c(C#N)c45)c(Cl)c3OCC[C@H]2C1 (single isomer, unassigned) [Formula I]
- tumor growth inhibition (%) or regression (− %) ([1]; 5 mg/kg BID x28): 83.6%
- tumor growth inhibition (%) or regression (− %) ([1]; 5 mg/kg QD x28): 18.2%
- tumor growth inhibition (%) or regression (− %) ([1]; 10 mg/kg BID x28): 62.1%
- tumor growth inhibition (%) or regression (− %) ([1]; 10 mg/kg QD x28): 95.2%
- tumor growth inhibition (%) or regression (− %) ([1]; 30 mg/kg BID x28): −23.8%
- tumor growth inhibition (%) or regression (− %) ([1]; 30 mg/kg QD x28): 83.5%
- Duration of response (DOR) <6 months ([2]; 50 mg BID): 0 (NE) n (%)
- Patients with best overall response of CR or PR ([2]; 50 mg BID (N = 1)): 0 (0.0) N′ (%)
- Duration of response (DOR) <6 months ([2]; 100 mg BID): 2 (100.0) n (%)
- Patients with best overall response of CR or PR ([2]; 100 mg BID (N = 6)): 2 (33.3) N′ (%)
- Duration of response (DOR) <6 months ([2]; 150 mg BID): 3 (100.0) n (%)
- Patients with best overall response of CR or PR ([2]; 150 mg BID (N = 6)): 3 (50.0) N′ (%)
- Best overall response (BOR): Complete Response (CR), % [2, 3]: (0.0) %
- Best overall response (BOR): Not Evaluable (NE), % [2, 3]: (0.0) %
- Best overall response (BOR): Partial Response (PR), % [2, 3]: (38.5) %
- Best overall response (BOR): Partial Response, pending confirmation and ongoing (uPR), % [2, 3]: (30.8) %
- Best overall response (BOR): Progressive Disease (PD), % [2, 3]: (7.7) %
- Best overall response (BOR): Stable Disease (SD), % [2, 3]: (23.1) %
- Disease control rate (CR + PR + IPR + SD), % [2, 3]: (92.3) %
- Objective response rate (CR + PR), % [2, 3]: (38.5) %
- Objective response rate, confirmed and unconfirmed (CR + PR + uPR), % [2, 3]: (69.2) %
- Patients with best overall response of CR or PR [2, 3]: 5 (38.5) N′ (%)
- Time to response (months), Interquartile range [2, 3]: 0.07 months
- Time to response (months), Median [2, 3]: 1.38 months
- % Change from Baseline in Sum of Diameters for all Target Lesions [2, 4]: 1.1%
- Time (months) of Progressive Disease [2, 4]: 1.1 months
- % Change from Baseline in Sum of Diameters for all Target Lesions [2, 5]: 0.0% and −40.9% and −45.1% and −59.4% and −82.8%
- Best Response [2, 5]: PR Pending; also recorded: PR Confirmed
- Time (months) of Partial Response - Confirmed [2, 5]: 1.3 months and 1.1 months
- Time (months) of Partial Response - Pending Confirmation and Ongoing [2, 5]: 1.3 months and 1.4 months
- % Change from Baseline in Sum of Diameters for all Target Lesions ([2]; Phase 1b Cohort B4, individual patients, starting dose 100 BID, prior KRAS G12Ci Y): 0.0%
- % Change from Baseline in Sum of Diameters for all Target Lesions [2, 6]: −29.5% and −38.2% and −49.2% and −57.7%
- Best Response [2, 6]: PR Pending; also recorded: PR Confirmed
- Time (months) of Partial Response - Confirmed [2, 6]: 1.4 months (2×) and 3.0 months
- Time (months) of Partial Response - Pending Confirmation and Ongoing ([2]; Phase 1b Cohort B4, individual patients, starting dose 150 BID, prior KRAS G12Ci Y): 1.1 months
- % Change from Baseline in Sum of Diameters for all Target Lesions [2, 7]: −32.1% and 7.3%
- Best Response [2, 7]: PR Confirmed
- Best overall response (BOR): Complete Response (CR), % [2, 8]: (0.0) %
- Best overall response (BOR): Not Evaluable (NE), % [2, 8]: (0.0) %
- Best overall response (BOR): Partial Response (PR), % [2, 8]: (0.0) %
- Best overall response (BOR): Partial Response, pending confirmation and ongoing (uPR), % [2, 8]: (0.0) %
- Best overall response (BOR): Progressive Disease (PD), % [2, 8]: (100.0) %
- Best overall response (BOR): Stable Disease (SD), % [2, 8]: (0.0) %
- Disease control rate (CR + PR + IPR + SD), % [2, 8]: (0.0) %
- Objective response rate (CR + PR), % [2, 8]: (0.0) %
- Objective response rate, confirmed and unconfirmed (CR + PR + uPR), % [2, 8]: (0.0) %
- Patients with best overall response of CR or PR [2, 8]: 0 (0.0) N′ (%)
- Best overall response (BOR): Complete Response (CR), % [2, 9]: (0.0) %
- Best overall response (BOR): Not Evaluable (NE), % [2, 9]: (0.0) %
- Best overall response (BOR): Partial Response (PR), % [2, 9]: (33.3) %
- Best overall response (BOR): Partial Response, pending confirmation and ongoing (uPR), % [2, 9]: (33.3) %
- Best overall response (BOR): Progressive Disease (PD), % [2, 9]: (0.0) %
- Best overall response (BOR): Stable Disease (SD), % [2, 9]: (33.3) %
- Disease control rate (CR + PR + IPR + SD), % [2, 9]: (100.0) %
- Objective response rate (CR + PR), % [2, 9]: (33.3) %
- Objective response rate, confirmed and unconfirmed (CR + PR + uPR), % [2, 9]: (66.7) %
- Patients with best overall response of CR or PR [2, 9]: 2 (33.3) N′ (%)
- Time to response (months), Interquartile range [2, 9]: 0.26 months
- Time to response (months), Median [2, 9]: 1.22 months
- Best overall response (BOR): Complete Response (CR), % [2, 10]: (0.0) %
- Best overall response (BOR): Not Evaluable (NE), % [2, 10]: 0.0%
- Best overall response (BOR): Partial Response (PR), % [2, 10]: (50.0) %
- Best overall response (BOR): Partial Response, pending confirmation and ongoing (uPR), % [2, 10]: (33.3) %
- Best overall response (BOR): Progressive Disease (PD), % [2, 10]: (0.0) %
- Best overall response (BOR): Stable Disease (SD), % [2, 10]: (16.7) %
- Disease control rate (CR + PR + IPR + SD), % [2, 10]: (100.0) %
- Objective response rate (CR + PR), % [2, 10]: (50.0) %
- Objective response rate, confirmed and unconfirmed (CR + PR + uPR), % [2, 10]: (83.3) %
- Patients with best overall response of CR or PR [2, 10]: 3 (50.0) N′ (%)
- Time to response (months), Interquartile range [2, 10]: 1.61 months
- Time to response (months), Median [2, 10]: 1.41 months
- Time to response (TTR) 2 to <4 months ([2]; Total (N = 13)): 1 (20.0) n (%)
- Time to response (TTR) <2 months ([2]; Total (N = 13)): 4 (80.0) n (%)
- Time to response (TTR) 2 to <4 months [2, 11]: 0 (NE) n (%)
- Time to response (TTR) <2 months [2, 11]: 0 (NE) n (%)
- Time to response (TTR) 2 to <4 months [2, 12]: 0 (0.0) n (%)
- Time to response (TTR) <2 months [2, 12]: 2 (100.0) n (%)
- Time to response (TTR) 2 to <4 months [2, 13]: 1 (33.3) n (%)
- Time to response (TTR) <2 months [2, 13]: 2 (66.7) n (%)
- Duration of response (DOR) <6 months ([2]; Total): 5 (100.0) n (%)
- Patients with best overall response of CR or PR ([2]; Total (N = 13)): 5 (38.5) N′ (%)
- median time to response ([2]; human, in vivo): 1.4 month
